This note sets out measurements from ChEMBL document CHEMBL1158980, “Bioactive neolignans from Endlicheria dysodantha” (J Nat Prod, 1991).

A word on the LC50: it is the concentration that kills 50% of the test population. Read a high LC50 as a less lethal substance.

Molecules are shown by their SMILES. In brackets after ≈: the same amount, converted by molar mass. Activity calls are given as the source filed them. The calls are words filed in the database; no cut-off is given here.

In one series the test system is MCF7. The series is described as follows: Cytotoxicity against human MCF7 cells. It is filed as functional. The conditions noted are these: read-out: ED50 (the source's name).
Another series deals with A549. The series is described as follows: Cytotoxicity against human A549 cells. It is filed as functional. The following applies: read-out: ED50 (the source's name).
A further series concerns Artemia. The series is described as follows: Toxicity against brine shrimp. It is filed as organism-based. The following applies: in vivo.
Series [1] relates to Agrobacterium tumefaciens. The series is described as follows: Antitumor activity against Agrobacterium tumefaciens-induced crown gall tumor in potato tubers. It is filed as functional.
For another series, the system named is HT-29. The series is described as follows: Cytotoxicity against human HT-29 cells. It is filed as functional. The conditions noted are these: read-out: ED50 (the source's name).

Regarding `C=CC[C@]12C=C(OC)C(=O)C=C1O[C@@H](c1cc(OC)c3c(c1)OCO3)[C@H]2C`, the values for the EC50 in the series on MCF7, in the series on A549 and in the series with HT-29 were 79 µg/mL (≈ 213 µM), over 100 µg/mL and 96.5 µg/mL (≈ 261 µM), respectively. Further, the 50% lethal concentration (LC50) with Artemia is recorded as 162.1 ppm. Besides, in series [1], the inhibition entry was “inactive”.
Consider `COc1cccc2c1C(=O)c1c(O)c3c(c(O)c1C2=O)C[C@@](O)(C(=O)CO)C[C@@H]3O[C@H]1C[C@H](N)[C@H](O)[C@H](C)O1` [DOXORUBICIN], for which the values for the EC50 in the series on MCF7, in the series on A549 and in the series on HT-29 were 0.115 µg/mL (≈ 0.212 µM), 0.0292 µg/mL (≈ 0.0537 µM) and 0.0344 µg/mL (≈ 0.0633 µM), respectively. For the same compound, the 50% lethal concentration (LC50) in the series with Artemia was determined as 4.05 ppm. The “inhibition (INH)” value in series [1] is given as 68.8%.
As to `C=CC[C@@]12C[C@@H](OC)C(=O)C=C1O[C@@H](c1cc(OC)c3c(c1)OCO3)[C@H]2C` [DYSODANTHIN A], the EC50 is 5.51 µg/mL (≈ 14.8 µM) in the series on MCF7, 4.23 µg/mL (≈ 11.4 µM) in the series with A549 and 2.39 µg/mL (≈ 6.42 µM) in the series on HT-29. The compound further came in with an LC50 in the series on Artemia of 47.53 ppm. For the same compound, the “inhibition (INH)” value in series [1] is recorded as 32.2%.
Taken in the same sequence, the figures for `C=CC[C@@]12C[C@@H](OC)C(=O)C=C1O[C@@H](c1cc(OC)c(OC)c(OC)c1)[C@H]2C` [DYSODANTHIN B] were 4.09 µg/mL (≈ 10.5 µM), 3.68 µg/mL (≈ 9.47 µM), 2.76 µg/mL (≈ 7.1 µM), 334.2 ppm and 52%.
In the same order, the values of `C=CC[C@]1([C@H](C)[C@@H](OC(C)=O)c2cc(OC)c(OC)c(OC)c2)C[C@@H](OC)C=CC1=O` [MEGAPHONE ACETATE] are 3.66 µg/mL, 2.59 µg/mL, 0.552 µg/mL, 253.6 ppm and 48.3%.
